US20100151050A1, “Method for evaluation of compound using RSK1” (priority 2005, published 2010)

Test system: p53-negative cells (TOV21G-shp53, A549-shp53, MCF7-shp53, U2OS-shp53, dominant negative U2OS-mtp53)
Assay: Cell viability by MTT assay after RSK1 siRNA lipofection, p53-negative cells
Type: cell-based
Settings: p53-negative cells with siRNA of RSK1, 96 hours
Experimental: First, as p53-positive cells, prepared were TOV21G, A549, MCF7 and U2OS cells. As p53-negative cells, prepared were TOV21G-shp53, A549-shp53, MCF7-shp53 and U2OS-shp53 by introducing shRNA of p53 into the above-mentioned four types of cells. Further, dominant negative U2OS-mtp53 cells were also prepared by introducing V157Fp53 into U2OS cells.
Next, siRNA of RSK1 was introduced into the above cells according to a lipofection method, and the cells were incubated in a 10% FCS-containing D-MEM medium (10% FCS-containing MacCoy's 5A medium for U2OS cells) in the presence or absence of cisplatin (CDDP) for 96 hours, and then their viability was measured through MTT assay. As the siRNA of RSK1, used was a mixture of the following three sequences.

Q: With `N.N.[Cl][Pt][Cl]` [cisplatin] as the compound, how does the “effect of cisplatin under RSK1 expression inhibition” value read?
A: The value was “enhanced”.
